US20050014753A1, “Novel compounds and compositions as protein kinase inhibitors” (IRM LLC, priority 2003, published 2005)
pIC50: −log10 of the molar value.

Legend:
Type in all cases: cell-based
M351T Bcr-abl = molecular target: T1, M351T Bcr-abl (Homo sapiens, UniProt P00519, M351T); assay: Antiproliferative effect on Ba/F3 cells expressing mutant Bcr-abl M351T
T1 construct: expressed in transfected cells; host or cells: Ba/F3 (murine pro-B cells); the other entry of the earlier key: BCR (P11274, Breakpoint cluster region protein)
Experimental: (§1) Compounds selectively inhibiting the proliferation of these Bcr-abl transformed cells are tested for anti-proliferative activity on Ba/F3 cells expressing either wild type or the mutant forms of Bcr-abl.
(§2) 32D-p210 cells are plated into 96 well TC plates at a density of 15,000 cells per well. 50 μL of two fold serial dilutions of the test compound (Cmax is 40 μM) are added to each well (ST1571 is included as a positive control). After incubating the cells for 48 hours at 37° C., 5% CO2, 15 μL of MTT (Promega) is added to each well and the cells are incubated for an additional 5 hours. The optical density at 570 nm is quantified spectrophotometrically and IC50 values, the concentration of compound required for 50% inhibition, determined from a dose response curve.
(§3) Compounds of the invention are tested for their antiproliferative effect on Ba/F3 cells expressing either wild type or the mutant forms of Bcr-abl (G250E, E255V, T315I, F317L, M351T) that confers resistance or diminished sensitivity to STI571. The antiproliferative effect of these compounds on the mutant-Bcr-abl expressing cells and on the non transformed cells were tested at 10, 3.3, 1.1 and 0.37 μM as described above (in media lacking IL3). The IC50 values of the compounds lacking toxicity on the untransformed cells were determined from the dose response curves obtained as describe above.

F317L Bcr-abl = molecular target: T2, F317L Bcr-abl (Homo sapiens, UniProt P00519, F317L); assay: Antiproliferative effect on Ba/F3 cells expressing mutant Bcr-abl F317L
T2 construct: expressed in transfected cells; host or cells: Ba/F3 (murine pro-B cells); the other entry of the earlier key: BCR (P11274, Breakpoint cluster region protein)
Experimental: as §1, §2, §3

wild-type Bcr-abl = molecular target: T3, wild-type Bcr-abl (Homo sapiens, UniProt P00519); assay: Antiproliferative effect on Ba/F3 cells expressing wild type Bcr-abl
T3 construct: expressed in transfected cells; host or cells: Ba/F3 (murine pro-B cells); the other entry of the earlier key: BCR (P11274, Breakpoint cluster region protein)
Experimental: as §1, §2, §3

G250E Bcr-abl = molecular target: T4, G250E Bcr-abl (Homo sapiens, UniProt P00519, G250E); assay: Antiproliferative effect on Ba/F3 cells expressing mutant Bcr-abl G250E
T4 construct: expressed in transfected cells; host or cells: Ba/F3 (murine pro-B cells); the other entry of the earlier key: BCR (P11274, Breakpoint cluster region protein)
Experimental: as §1, §2, §3

T3151 Bcr-abl = molecular target: T5, T3151 Bcr-abl (Homo sapiens, UniProt P00519, T315I, cells depend on it); assay: Antiproliferative effect on Ba/F3 cells expressing mutant Bcr-abl T315I
T5 construct: fused on or other part: P11274 (Breakpoint cluster region protein)
Experimental: as §1, §2, §3

E255V Bcr-abl = molecular target: T6, E255V Bcr-abl (Homo sapiens, UniProt P00519, E255V); assay: Antiproliferative effect on Ba/F3 cells expressing mutant Bcr-abl E255V
T6 construct: expressed in transfected cells; host or cells: Ba/F3 (murine pro-B cells); the other entry of the earlier key: BCR (P11274, Breakpoint cluster region protein)
Experimental: as §1, §2, §3

- pIC50 (M351T Bcr-abl): 6.01
- pIC50 (F317L Bcr-abl): 5.35
- pIC50 (wild-type Bcr-abl): 6.70
- pIC50 (G250E Bcr-abl): 5.32
- pIC50 (T3151 Bcr-abl): 5.28
- pIC50 (E255V Bcr-abl): 6.60
SMILES: NC(=O)c1ccc(-c2cc(-c3cc(Nc4ccc(OC(F)(F)F)cc4)ncn3)ccn2)cc1 [Compound 97]
